Experimental data taken from patent US12157730B2, “Heteroaryl derivative, method for producing same, and pharmaceutical composition comprising same as effective component” (VORONOI INC., priority 2019, dated 2024).

These compounds were tested against T1, Ba/F3 cell EGFR Exon20 ins NPH (Homo sapiens, UniProt P00533, INS773NPH) (assay: Ba/F3 cell proliferation suppression, EGFR Exon20 ins NPH). Conditions: GI50 class; Ba/F3 cell line with NPH inserted at Exon20 of EGFR; 72 hours.
T1 construct: expressed in transfected cells; host or cells: Ba/F3
Type: cell-based
In short: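 After 72 h compound exposure (twelve 3-fold steps, 0.3 nM–50 um final), live cells were measured by CellTiter-Glo luminescence and growth expressed as % of control to derive GI50. Cells were seeded at 3000–5000 per well a day earlier; Ba/F3 medium contained IL-3; three repeats.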

Row | Ba/F3 (NPH) Activity | SMILES
1 | C (500 nM ≤ GI50 < 5000 nM) | C=CC(=O)Nc1cc(Nc2cc(N3OCC[C@H]3c3c(F)cccc3F)ncn2)c(OC)cc1N1C[C@H]2CCN(C)[C@H]2C1 [compound 898, N-(5-((6-((S)-3-(2,6-difluorophenyl)isoxazolidine-2-yl)pyrimidine-4-yl)amino)-4-methoxy-2-((3aR,6aR)-1-methylhexahydropyrrolo [3,4-b]pyrrole-5(1H)-yl)phenyl) acrylamide]
2 | A (GI50 < 50 nM) | C=CC(=O)Nc1cc(Nc2cc(N3OCC[C@@H]3c3ccc(F)c(Cl)c3)ncn2)c(OC)cc1N1CCC(N2CCN(C)CC2)CC1 [compound 719, N-(5-((6-((R)-3-(3-chloro-4-fluorophenyl)isoxazolidine-2-yl)pyrimidine-4-yl)amino)-4-methoxy-2-(4-(4-methylpiperazine-1-yl)piperidine-1-yl)phenyl) acrylamide]
3 | A (GI50 < 50 nM) | C=CC(=O)Nc1cc(Nc2cc(N3OCC[C@@H]3c3ccc(F)cc3F)ncn2)c(OC)cc1N1CCC(N2CCN(C3CCOCC3)CC2)CC1 [Example 207, N-(5-((6-((R)-3-(2,4-difluorophenyl)isoxazolidine-2-yl)pyrimidine-4-yl)amino)-4-methoxy-2-(4-(4-(tetrahydro-2H-pyran-4-yl)piperazine-1-yl)piperidine-1-yl)phenyl)acrylamide]
4 | A (GI50 < 50 nM) | C=CC(=O)Nc1cc(Nc2cc(N3OCC[C@@H]3c3cccc(Cl)c3)ncn2)c(OC)cc1N1CC[C@@H](N(C)C)C1 [compound 469, N-(5-((6-((R)-3-(3-chlorophenyl)isoxazolidine-2-yl)pyrimidine-4-yl)amino)-2-((R)-3-(dimethylamino)pyrolidine-1-yl)-4-methoxyphenyl) acrylamide]
5 | C (500 nM ≤ GI50 < 5000 nM) | C=CC(=O)Nc1cc(Nc2cc(N3OCCC3(C)c3ccccc3)ncn2)c(OC)cc1N1CCC(N2CCN(CC)CC2)CC1 (centres unmarked) [Example 261, N-(2-(4-(4-ethylpiperazine-1-yl)piperidine-1-yl)-4-methoxy-5-((6-(3-methyl-3-phenylisoxazolidine-2-yl)pyrimidine-4-yl)amino)phenyl) acrylamide]
6 | A (GI50 < 50 nM) | C=CC(=O)Nc1cc(Nc2cc(N3OCC[C@@H]3c3cc(F)cc(F)c3)ncn2)c(OC)cc1N1C[C@@H]2CCN(C)[C@@H]2C1 [compound 891, N-(5-((6-((R)-3-(3,5-difluorophenyl)isoxazolidine-2-yl)pyrimidine-4-yl)amino)-4-methoxy-2-((3aS,6aS)-1-methylhexahydropyrrolo [3,4-b]pyrrole-5(1H)-yl)phenyl) acrylamide]
7 | A (GI50 < 50 nM) | C=CC(=O)Nc1cc(Nc2cc(N3OCC[C@@H]3c3ccc4ccccc4c3)ncn2)c(OC)cc1N(C)CCN(C)C [compound 511, N-(2-((2-(dimethylamino)ethyl)(methyl)amino)-4-methoxy-5-((6-((R)-3-(naphthalene-2-yl)isoxazolidine-2-yl)pyrimidine-4-yl)amino)phenyl)acrylamide]
8 | B (50 nM ≤ GI50 < 500 nM) | C=CC(=O)Nc1cc(Nc2cc(N3OCC[C@@H]3c3cccc(Cl)c3Cl)ncn2)c(OC)cc1N1CCN(C2CCN(C)CC2)CC1 [compound 562, N-(5-((6-((R)-3-(2,3-dichlorophenyl)isoxazolidine-2-yl)pyrimidine-4-yl)amino)-4-methoxy-2-(4-(1-methylpiperidine-4-yl)piperazine-1-yl)phenyl) acrylamide]
9 | A (GI50 < 50 nM) | C=CC(=O)Nc1cc(Nc2cc(N3OCC[C@@H]3c3ccc(Cl)cc3)ncn2)c(OC)cc1N1CC[C@@H](N2CCOCC2)C1 [compound 733, N-(5-((6-((R)-3-(4-chlorophenyl)isoxazolidine-2-yl)pyrimidine-4-yl)amino)-4-methoxy-2-((R)-3-morpholinopyrolidine-1-yl)phenyl)acrylamide]
10 | A (GI50 < 50 nM) | C=CC(=O)Nc1cc(Nc2cc(N3OCC[C@@H]3c3cc(F)ccc3F)ncn2)c(OC)cc1N1CCC(N2CCO[C@@H](C)C2)CC1 [compound 821, N-(5-((6-((R)-3-(2,5-difluorophenyl)isoxazolidine-2-yl)pyrimidine-4-yl)amino)-4-methoxy-2-(4-((S)-2-methylmorpholino)piperidine-1-yl)phenyl) acrylamide]
11 | A (GI50 < 50 nM) | C=CC(=O)Nc1cc(Nc2cc(N3OCC[C@@H]3c3cc(F)ccc3F)ncn2)c(OC)cc1N(C)CCN(C)C [compound 882, N-(5-((6-((R)-3-(2,5-difluorophenyl)isoxazolidine-2-yl)pyrimidine-4-yl)amino)-2-((2-(dimethylamino)ethyl)(methyl)amino)-4-methoxyphenyl) acrylamide]
12 | B (50 nM ≤ GI50 < 500 nM) | C=CC(=O)Nc1cc(Nc2cc(N3OCC[C@@H]3c3ccc(F)cc3F)ncn2)c(OC)cc1-n1cnc(C)c1 [compound 386, N-(5-((6-((R)-3-(2,4-difluorophenyl)isoxazolidine-2-yl)pyrimidine-4-yl)amino)-4-methoxy-2-(4-methyl-1H-imidazole-1-yl)phenyl)acrylamide]
13 | A (GI50 < 50 nM) | C=CC(=O)Nc1cc(Nc2cc(N3OCC[C@@H]3Cc3cccc(F)c3C)ncn2)c(OC)cc1N1CCC(N2CCN(C3CC3)[C@H](C)C2)CC1 [compound 1004, N-(2-(4-((R)-4-cyclopropyl-3-methylpiperazine-1-yl)piperidine-1-yl)-5-((6-((S)-3-(3-fluoro-2-methylbenzyl)isoxazolidine-2-yl)pyrimidine-4-yl)amino)-4-methoxyphenyl) acrylamide]
14 | A (GI50 < 50 nM) | C=CC(=O)Nc1cc(Nc2cc(N3OCC[C@@H]3c3cccc(C)c3F)ncn2)c(OC)cc1N1CCN(C)CC1 [compound 845, N-(5-((6-((R)-3-(2-fluoro-3-methylphenyl)isoxazolidine-2-yl)pyrimidine-4-yl)amino)-4-methoxy-2-(4-methylpiperazine-1-yl)phenyl)acrylamide]
15 | A (GI50 < 50 nM) | C=CC(=O)Nc1cc(Nc2cc(N3OCC[C@@H]3c3cccc(F)c3F)ncn2)c(OC)cc1N1CCN(C2CC2)CC1 [compound 333, N-(2-(4-cyclopropylpiperazine-1-yl)-5-((6-((R)-3-(2,3-difluorophenyl)isoxazolidine-2-yl)pyrimidine-4-yl)amino)-4-methoxyphenyl) acrylamide]
16 | A (GI50 < 50 nM) | C=CC(=O)Nc1cc(Nc2cc(N3OCC[C@@H]3c3cccc(Cl)c3)ncn2)c(OC)cc1N(C)CCN(C)C [compound 359, N-(5-((6-((R)-3-(3-chlorophenyl)isoxazolidine-2-yl)pyrimidine-4-yl)amino)-2-((2-(dimethylamino)ethyl)(methyl)amino)-4-methoxyphenyl) acrylamide]
17 | A (GI50 < 50 nM) | C=CC(=O)Nc1cc(Nc2cc(N3OCC[C@@H]3c3cc(F)ccc3F)ncn2)c(OC)cc1N1C[C@@H]2C[C@H]1CO2 [compound 329, N-(2-((1S,4S)-2-oxa-5-azabicyclo[2.2.1]heptane-5-yl)-5-((6-((R)-3-(2,5-difluorophenyl)isoxazolidine-2-yl)pyrimidine-4-yl)amino)-4-methoxyphenyl) acrylamide]
